Data from US6992105B2, “Dipeptide derivatives” (Novartis AG, priority 2001, dated 2006).

Tests used:
[1] = tested on: spontaneously hypertensive rat (SHR); test: anti-hypertensive activity in the spontaneously hypertensive rat (SHR); format: in vivo; conditions: conscious SHR, once daily administration of 11.8 mg/kg p.o.
Text: The anti-hypertensive activity can be determined, e.g., in the spontaneously hypertensive rat (SHR) and the DOCA-salt hypertensive rat, e.g., according to Bazil et al., J. Cardiovasc. Pharmacol., Vol. 22, pp. 897–905 (1993) and Trapani et al., J. Cardiovasc. Pharmacol., Vol. 14, pp. 419–424 (1989), respectively.

[2] = tested on: angiotensin I induced pressor response (ACE); test: inhibition of the angiotensin I induced pressor response in normotensive rats; format: in vivo, rat; conditions: 11.8 mg/kg p.o., conscious normotensive rats
Procedure: The in vivo test for i.v. administered compounds is performed with male, normotensive rats, which are conscious. A femoral artery and femoral vein are cannulated respectively for direct blood pressure measurement on i.v. administration of angiotensin I and i.v. or p.o. administration of a compound of this invention. After the basal blood pressure is stabilized, pressor responses to 3 or 4 challenges of 300 ng/kg angiotensin I i.v., at 15-minute intervals, are obtained. Such pressure responses are usually again obtained at 15, 30, 60 and 90 minutes, and then every hour up to 6 hours after i.v. or p.o. administration of the compound to be tested, and compared with the initial responses. Any observed decrease of said pressor response is an indication of ACE inhibition.

[3] = tested on: plasma ANF concentration (NEP inhibition); test: effect on rat plasma ANF concentration; format: in vivo; conditions: 11.8 mg/kg p.o., rats infused with ANF 450 ng/kg/min i.v.
Procedure: The effect of the compounds of the invention on rat plasma ANF concentration can be determined as follows:
Male Sprague-Dawley rats (275–390 g) are anesthetized with ketamine (150 mg/kg)/acepromazine (10%) and instrumented with catheters in the femoral artery and vein to obtain blood samples and infuse ANF, respectively. The rats are tethered with a swivel system and are allowed to recover for 24 hours before being studied in the conscious, unrestrained state.
In the assay, plasma ANF levels are determined in the presence and absence of NEP inhibition. On the day of study, all rats are infused continuously with ANF at 450 ng/kg/min. i.v. for the entire 5 hours of the experiment. Sixty minutes after beginning the infusion, blood samples for baseline ANF measurements are obtained (time 0) and the rats are then randomly divided into groups treated with the test compound or vehicle. Additional blood samples are taken 30, 60, 120, 180 and 240 minutes after administration of the test compound.
Plasma ANF concentrations are determined by a specific radioimmunoassay. […] The supernatant is decanted and the pellets counted in a gamma counter. […] Plasma ANF levels are expressed as a percent of those measured in vehicle-treated animals which received ANF alone (450 ng/kg/min. i.v.)

SMILES: CCOC(=O)[C@H](COCc1ccccc1)NC(=O)C(C)(C)NC(=O)[C@@H](SC(C)=O)C(C)C [Example 1(a), N-[2-[(S)-2-Acetylthio-3-methylbutanoylamino]-2-methylpropionyl]-O-benzyl-L-serine ethyl ester]
- effect on mean arterial pressure [1]: reduces mean arterial pressure
- duration of inhibition of the angiotensin I induced pressor response [2]: 6 h
- increase of plasma ANF levels [3]: about 70%
